Laboratory results reported in patent publication US7713923B2, “Self-assembling peptides incorporating modifications and methods of use thereof” (Massachusetts Institute of Technology, priority 2003, dated 2010).

What was measured:
[1] = Circular dichroism (secondary structure); format: physicochemical; conditions: 25 μM peptide in water, room temperature, 195-250 nm
Description: Circular dichroism (DC). CD spectra were gathered on an Aviv model 202 spectropolarimeter. Samples were prepared by diluting stock peptide solutions in water (0.5%) to a working concentration of 25 μM. Samples were analysed at room temperature in a quartz cuvette with a path length of 0.3 cm and in the wavelength range 195-250 nm.
Circular dichroism. CD spectra were obtained for each peptide sequence to assess its secondary structure. The secondary structure identifies ordered structures within a polypeptide such as α-helices and β-sheets. […] (Havel, 1996).

[2] = Rheometry (dynamic frequency and time sweep); format: physicochemical
Description: Rheometry. Rheological assays were performed on a 50 mm parallel plate ARES strain controlled rheometer (Rheometric Scientific, NJ). Samples were dissolved in deionized water at a final concentration of 2.9 mM and sonicated for one hour the day prior to the analysis. A volume of 1 ml was loaded on the lower plate, and the upper plate was set to a gap size between 0.4-0.45 mm. Dynamic frequency sweep tests were performed in a range of frequencies from 100 to 0.1 radis. After the test, PBS was added around the lower plate in order to promote gelation. The peptide was allowed to gel for 10 min at room temperature before the test was performed once again. After a dynamic frequency sweep test, the behavior of samples over time was tested. A dynamic time sweep test was performed at 10 rad/s for 5 min.
Rheology. A dynamic strain sweep was first performed on RAD16-I to set the linear viscoelastic region of the test and to select a fixed strain for the dynamic frequency sweep tests (FIG. 19). This linear viscoelastic range is defined by constant moduli, G′ and G″. It is important to select a strain within this range to obtain reliable results (Schramm, 1994). The strain selected was 0.01 (dimensionless) and was applied in all assays.

[3] = test system: human aortic endothelial cells (HAEC); assay: HAEC monolayer formation on peptide scaffolds; format: cell-based; design: key to HAEC monolayer formation, peptide content 100% / HAEC monolayer formation, Blending (9:1): +: Score for optimal monolayer formation and cell survival; −: Score for poor or none monolayer formation and cell survival
Description: Endothelial cell culture system. Peptide scaffolds (0.5% w/v) were prepared at 100% peptide sequence for RAD16-I or blended with RAD16-I at a radio of 9:1 (RAD16-I: peptide sequence, on a volume/volume basis) for the three other cases (YIG, RYV, and TAG). Each solution was filtered (0.2 μm, Acrodysc filters, 4192, PALL, MI), loaded (30 μl) on top of a cell culture chamber insert (10 mm diameter, 136935, Nalge Nunc International, IL), and allowed to form a layer (average thickness=600 μm). Phosphate Buffer Saline (PBS) (600 μl) was added at the bottom of the well to induce hydrogel formation, and the system was incubated at room temperature for 30 min. PBS was replaced with culture medium, which was then replaced with fresh medium. The scaffolds were incubated for 1 hour with endothelial cell growth media (EGM-2, Cambrex, MD) in a cell culture incubator at 37° C. with 5% CO2.
(§1) Meanwhile, human aortic endothelial cells (HAEC) (CC-2535, Cambrex, MD) that had been maintained under standard culture conditions (passage 5-6) were harvested at 80% confluence using trypsin and loaded on top of the preformed peptide scaffolds at a cell density of 8×10^4 cells/cm^2 and cultured in the cell culture incubator at 37° C. with 5% CO2. Cell attachment assays were performed one hour after the initial cell loading. To perform the assays, the covering media was removed, and unattached cells were counted on a hematocytometer. Cell counting was performed by mechanically disrupting the scaffold containing cells by pipetting up and down and then counting cells on a hematocytometer after performing Trypan blue (T 9906, Sigma, MO) exclusion assay staining to assess cell viability. In some experiments, for comparison, EC were cultured on inserts coated with Matrigel or collagen (1.5 mg/ml, i.e. 0.15%) according to standard protocols.
In a first experiment, we tested the ability of HAEC to attach and form a monolayer when seeded on various peptide scaffolds generated by self-assembly of the peptides following addition of PBS to a 0.5%(w/v) solution of the peptide in water. […] HAEC cultured in the presence of scaffolds generated from peptides incorporating the other biologically active peptide motifs either died or formed isolated clusters (FIGS. 9A-9G).
We therefore decided to blend the peptides incorporating biologically active motifs with the prototypic RAD16-I sequence in order to reduce the overall concentration of the biologically active motif presented to cells. We selected a volume/volume ratio of 9:1 (RAD16-I:modified peptide sequence comprising biologically active peptide motif, where peptides were dissolved at equal concentrations on a w/w basis) and generated peptide scaffolds from solutions in which the unmodified and modified peptides were present in this ratio.

[4] = test system: human aortic endothelial cells (HAEC); assay: HAEC attachment assay on peptide scaffolds; format: cell-based; conditions: after one hour; modified peptides as 9:1 blends with RAD16-I
Description: as §1

[5] = test system: human aortic endothelial cells (HAEC); assay: NO release determination (Griess method); format: cell-based; conditions: nitrite in culture supernatant; RAD16-I 100%, others 9:1 blend
Description: NO release determination. Nitric oxide (NO) release was estimated by measuring nitrites (NOx) by the Griess method. Briefly, the media was replaced after the third day of culture by new media without fetal bovine serum (FBS) or ascorbic acid. The next day, the media was used to analyze NO release using a commercially available kit (482702, Calbiochem, CA) following the manufacturer instructions. Each condition was tested in triplicate.

[6] = test system: human aortic endothelial cells (HAEC); assay: Western blot of laminin 1 and collagen IV production by HAEC; format: cell-based; conditions: compared to conventional 2D tissue culture plates
Text: Western blots. Harvested HAEC for each culture condition were counted and lysed with sample buffer (NP0007, Invitrogen, CA) containing 2% (v/v) β-mercaptoethanol and a cocktail of protease inhibitors (1836153, Complete Mini, Roche, Penzberg, Germany) to avoid proteolysis. Cell lysates were run on a 10% PAGE system in MOPS buffer (NP0301, NP0001 Invitrogen, CA), and proteins were transferred to PVDF membranes (LC2002, Invitrogen, CA) to perform western blots. Briefly, membranes were blocked with 2% BSA and 0.1% Triton-X 100 in PBS. Two primary antibodies were used: mouse monoclonal IgG, anti human laminin γ1 [laminin B2 chain] (1 μg/ml, B1920, Chemicon, CA) and mouse monoclonal IgG, anti human collagen IV [7S domain] (2 μg/ml, MAB3326, Chemicon, CA). A secondary antibody, goat polyclonal anti-mouse IgG-HRP conjugated (1:5000 dilution, sc-2302, Santa Cruz Biotechnology, CA) was used for detection by chemiluminescence (sc-2048, Santa Cruz Biotechnology, CA). Protein bands were visualized by exposure to an X-ray film (Biomax Film, Kodak, N.Y.).

[7] = test system: neurons; conditions: neurons grown on surface; cited from earlier work
[8] = test system: Liver progenitor cells; conditions: encapsulated cells; cited from earlier work

## CC(=O)N[C@@H](CCCNC(=N)N)C(=O)N[C@@H](C)C(=O)N[C@@H](CC(=O)O)C(=O)N[C@@H](C)C(=O)N[C@@H](CCCNC(=N)N)C(=O)N[C@@H](C)C(=O)N[C@@H](CC(=O)O)C(=O)N[C@@H](C)C(=O)N[C@@H](CCCNC(=N)N)C(=O)N[C@@H](C)C(=O)N[C@@H](CC(=O)O)C(=O)N[C@@H](C)C(=O)N[C@@H](CCCNC(=N)N)C(=O)N[C@@H](C)C(=O)N[C@@H](CC(=O)O)C(=O)N[C@@H](C)C(N)=O [RAD16-I, AcN-(RADA)4-CONH2]
[1]
  Secondary structure (CD): β-sheet
[2]; PBS added, 10 minutes gelation
  increase of both moduli (G′, G″) upon addition of salts: ≈ 10 fold
[2]; after addition of PBS, dynamic frequency sweep, strain 0.01, 2.9 mM peptide
  storage modulus G′: 2.5×10^3 Pa
[3]; 0.5% (w/v) peptide, no blending
  HAEC monolayer formation, scaffold of 100% peptide: monolayer formation was observed
[3]; after 3 days in culture
  HAEC monolayer formation and cobblestone morphology on gel systems: less than on blended scaffolds or on Matrigel or collagen-I
[3]; scaffold of 100% peptide, 0.5% (w/v)
  HAEC monolayer formation, peptide content 100%: +¶
[4]
  HAEC attachment to the surface: ~100%
[5]
  nitric oxide (NO) release by HAEC: promote NO release
[6]
  laminin 1 and collagen IV deposition by HAEC: significant enhancement of laminin 1 and collagen IV deposition
[7]
  neurite outgrowth and synapse formation on peptide structure: able to serve as a substrate for neurite outgrowth and formation of functionally active synapses
[8]
  hepatocyte marker expression: expressed markers indicative of hepatocyte phenotype
